This passage reports GI50 and TGI results from PubChem BioAssay (NCI).

Molecules are shown by their SMILES.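 1) Cells in 96-well plates. 2) Compound, 48 h, 5 concentrations. 3) Linear interpolation between surrounding doses. 4) Unreached endpoint = highest concentration. GI50 is the concentration that inhibits growth by half. The concentration for full growth arrest is given as TGI.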 A value given as a limit tells only on which side of the number the result lay.

Test systems include SK-MEL-28 melanoma; CAKI-1 renal; NCI-H23 lung; A498 renal; NCI-H460 lung; 786-0 renal; PC-3 prostate; OVCAR-4 ovarian; TK-10 renal; CCRF-CEM leukemia.
What all share (assay): NCI anticancer screen, dose series, 48 h

`COc1cccc(/C=N\Nc2ccc([N+](=O)[O-])cn2)c1O`: the GI50 in the experiment on SK-MEL-28 melanoma was 19.6 µM; in the experiment with CAKI-1 renal, 1.74 µM; in the experiment on NCI-H23 lung it was 2.92 µM; with A498 renal, 2.42 µM; in the experiment on NCI-H460 lung, 2.05 µM; in the experiment with 786-0 renal, 3.53 µM. Moreover, the GI50 in the experiment with PC-3 prostate was 14 µM; in the experiment on OVCAR-4 ovarian, 4.28 µM; in the experiment on TK-10 renal, 7.31 µM; in the experiment with CCRF-CEM leukemia, 3.42 µM. Further, the TGI in the experiment with SK-MEL-28 melanoma was over 100 µM; in the experiment with CAKI-1 renal, 4.14 µM; in the experiment with NCI-H23 lung it was 14.9 µM; in the experiment with A498 renal, 15.4 µM; with NCI-H460 lung, 11 µM; in the experiment with 786-0 renal, 28.9 µM. Besides, the TGI was over 100 µM in the experiment on PC-3 prostate, over 100 µM in the experiment with OVCAR-4 ovarian, over 100 µM in the experiment with TK-10 renal and 38.2 µM in the experiment with CCRF-CEM leukemia.
For the compound `O=C(O)C1C2CC3C(OC(=O)C31)C2Br` (stereo not given), the TGI in the experiment with SK-MEL-28 melanoma, in the experiment with CAKI-1 renal, in the experiment with NCI-H23 lung, with A498 renal, in the experiment on NCI-H460 lung and in the experiment with 786-0 renal was over 100 µM in each case. Also, the TGI in the experiment on PC-3 prostate, with OVCAR-4 ovarian, with TK-10 renal and in the experiment on CCRF-CEM leukemia was over 100 µM each time.
As to `COCCOC(=O)C1=C(C)NC2=C(C(=O)CC(c3ccccc3OC)C2)C1c1cccc(O)c1` (stereo not given), the GI50 with SK-MEL-28 melanoma was 12.6 µM; with CAKI-1 renal, 4.43 µM; in the experiment on NCI-H23 lung it was 14.7 µM; with A498 renal, 10.2 µM; in the experiment with NCI-H460 lung, 15.5 µM; in the experiment on 786-0 renal, 12.2 µM. Also, the GI50 in the experiment with PC-3 prostate is 8.15 µM; in the experiment with OVCAR-4 ovarian, 8.98 µM; in the experiment on TK-10 renal it was 4.26 µM; with CCRF-CEM leukemia it was 11.3 µM. In addition, the TGI with SK-MEL-28 melanoma came to 50.6 µM; in the experiment on CAKI-1 renal, 31.3 µM; with NCI-H23 lung it was 56.6 µM; in the experiment on A498 renal, 25.9 µM; in the experiment on NCI-H460 lung, 42.9 µM; with 786-0 renal, 51.6 µM. Moreover, the TGI was over 95.2 µM with PC-3 prostate, over 80.5 µM in the experiment with OVCAR-4 ovarian, 30.7 µM with TK-10 renal and 83.6 µM in the experiment on CCRF-CEM leukemia.
As to `O=C1Nc2ccccc2C1Cc1ccccc1` (stereo not given), the TGI in the experiment with SK-MEL-28 melanoma, in the experiment on CAKI-1 renal, in the experiment on NCI-H23 lung, with A498 renal, in the experiment with NCI-H460 lung and with 786-0 renal was over 100 µM throughout. Further, the TGI with PC-3 prostate, in the experiment on OVCAR-4 ovarian, in the experiment on TK-10 renal and with CCRF-CEM leukemia was over 100 µM throughout.
Consider `O=C1C=C(Nc2ccccc2C(=O)CC(=O)C(=O)Nc2cccc(C(F)(F)F)c2)c2ccccc2C1=O`, for which the TGI with SK-MEL-28 melanoma was 54.8 µM; in the experiment with CAKI-1 renal it was 99.8 µM; with NCI-H23 lung, 30.5 µM; with A498 renal it was over 100 µM; with NCI-H460 lung, over 100 µM; in the experiment on 786-0 renal it was over 97.2 µM. In addition, the TGI in the experiment with PC-3 prostate is over 100 µM; in the experiment with OVCAR-4 ovarian, over 87.4 µM; with TK-10 renal, over 100 µM; with CCRF-CEM leukemia, 44.7 µM.
Consider `COC(CCP(=O)(c1ccccc1)c1ccccc1)(C(=O)c1ccccc1)c1ccccc1` (stereo not given), for which the GI50 is 6.95 µM with SK-MEL-28 melanoma; 2.95 µM in the experiment on CAKI-1 renal; 4.5 µM with NCI-H23 lung; 3.4 µM in the experiment on A498 renal; 3.43 µM in the experiment with NCI-H460 lung; 10.3 µM in the experiment on 786-0 renal. For the same compound, the GI50 was 2.15 µM in the experiment with PC-3 prostate, 5.57 µM in the experiment with OVCAR-4 ovarian, 2.94 µM with TK-10 renal and 2.27 µM in the experiment on CCRF-CEM leukemia. The TGI amounted to 19.9 µM with SK-MEL-28 melanoma; 12.2 µM in the experiment with CAKI-1 renal; 17.8 µM with NCI-H23 lung; 16.8 µM in the experiment on A498 renal; 14 µM in the experiment on NCI-H460 lung; 28 µM in the experiment on 786-0 renal. Also, the TGI turned out to be 12.3 µM in the experiment on PC-3 prostate, 21.4 µM in the experiment on OVCAR-4 ovarian, 14.1 µM in the experiment with TK-10 renal and 42 µM in the experiment with CCRF-CEM leukemia.
On to `C(=C1c2ccccc2-c2ccccc21)c1ccccn1`, for which the GI50 was 8.12 µM in the experiment on SK-MEL-28 melanoma; 3.23 µM with CAKI-1 renal; 10.3 µM with NCI-H23 lung; 3.51 µM with A498 renal; 5.87 µM with NCI-H460 lung; 14.7 µM with 786-0 renal. Moreover, the GI50 in the experiment on PC-3 prostate was 22.7 µM; in the experiment on OVCAR-4 ovarian it was 15.3 µM; in the experiment on TK-10 renal, 19 µM; with CCRF-CEM leukemia, 7.8 µM. For the same compound, the TGI stood at 73 µM in the experiment with SK-MEL-28 melanoma; 19.6 µM in the experiment on CAKI-1 renal; 96.7 µM in the experiment on NCI-H23 lung; 23.7 µM in the experiment with A498 renal; 23 µM with NCI-H460 lung; 29.8 µM with 786-0 renal. Further, the TGI in the experiment on PC-3 prostate is over 100 µM; with OVCAR-4 ovarian, over 100 µM; with TK-10 renal it was 57.3 µM; in the experiment on CCRF-CEM leukemia it was 46 µM.
Regarding `COc1ccc(-c2n[nH]nc2-c2csc3ccccc23)cc1OC`, the GI50 in the experiment on SK-MEL-28 melanoma was 4.63 µM; in the experiment with CAKI-1 renal it was 3.69 µM; with NCI-H23 lung, 3.93 µM; with A498 renal it was 2.96 µM; in the experiment with NCI-H460 lung, 3.56 µM; in the experiment with 786-0 renal, 3.26 µM. Moreover, the GI50 was 3.08 µM in the experiment on PC-3 prostate, 6.33 µM in the experiment with OVCAR-4 ovarian, 2.98 µM in the experiment on TK-10 renal and 3.29 µM with CCRF-CEM leukemia. Also, the TGI in the experiment on SK-MEL-28 melanoma is 48.5 µM; in the experiment with CAKI-1 renal it was 34.2 µM; in the experiment with NCI-H23 lung, 27.9 µM; in the experiment with A498 renal it was 12.1 µM; with NCI-H460 lung, 18.9 µM; in the experiment on 786-0 renal, 22.6 µM. In addition, the TGI in the experiment on PC-3 prostate is 35.4 µM; with OVCAR-4 ovarian, over 100 µM; in the experiment on TK-10 renal, 19.8 µM; in the experiment with CCRF-CEM leukemia it was 32.9 µM.
With `CN1C(=O)CNC(=O)[C@H](NC(=O)c2nc3ccccc3cc2O)CSSC[C@H]1C(=O)NCCc1nc2ccccc2cc1O`, the GI50 with SK-MEL-28 melanoma is 8.07 µM; in the experiment with CAKI-1 renal, over 46.6 µM; with NCI-H23 lung, 13.6 µM; in the experiment on A498 renal, over 100 µM; in the experiment on NCI-H460 lung, 1.15 µM; in the experiment with 786-0 renal, 22.1 µM. For the same compound, the GI50 in the experiment on PC-3 prostate was 18.9 µM; in the experiment on OVCAR-4 ovarian, 25 µM; in the experiment with TK-10 renal, 20.5 µM; in the experiment on CCRF-CEM leukemia it was 3.25 µM. In addition, the TGI was 35 µM in the experiment on SK-MEL-28 melanoma; over 78.1 µM with CAKI-1 renal; 60.9 µM in the experiment with NCI-H23 lung; over 100 µM with A498 renal; over 35.2 µM in the experiment with NCI-H460 lung; 49 µM with 786-0 renal. The TGI with PC-3 prostate was over 70.4 µM; in the experiment with OVCAR-4 ovarian, over 73.1 µM; in the experiment with TK-10 renal, 47.3 µM; with CCRF-CEM leukemia, over 52.7 µM.
In the case of `COc1cnc2c(c1)C(=O)c1c-2n(CCCn2ccnc2)c(=O)c2cc(Cl)ccc12`, the GI50 in the experiment on SK-MEL-28 melanoma was 0.611 µM; in the experiment on CAKI-1 renal, 0.0255 µM; in the experiment on NCI-H23 lung, 0.0382 µM; with A498 renal, 0.113 µM; in the experiment on NCI-H460 lung, under 0.01 µM; in the experiment with 786-0 renal it was 0.0262 µM. Besides, the GI50 in the experiment on PC-3 prostate was 0.0667 µM; in the experiment on OVCAR-4 ovarian, 0.362 µM; in the experiment on TK-10 renal it was 0.744 µM; in the experiment with CCRF-CEM leukemia it was under 0.01 µM. The TGI in the experiment on SK-MEL-28 melanoma was over 100 µM; in the experiment on CAKI-1 renal, over 100 µM; in the experiment with NCI-H23 lung, 0.505 µM; in the experiment with A498 renal, 0.557 µM; in the experiment on NCI-H460 lung it was 0.271 µM; in the experiment with 786-0 renal it was 0.0823 µM. Further, the TGI in the experiment with PC-3 prostate, in the experiment with OVCAR-4 ovarian, with TK-10 renal and with CCRF-CEM leukemia was over 100 µM each time.
